Source: ChEMBL document CHEMBL1130894, “Discovery of a novel benzyloxyisoquinoline derivative with potent anti-Helicobacter pylori activity” (1998)
Values after ≈ are worked out from the molar mass of the structure shown.

Key:
Assay type in all cases: functional
Helicobacter pylori [1] = test: Antibacterial activity was evaluated against Helicobacter pylori (FP1757).
Helicobacter pylori [2] = test: Antibacterial activity was evaluated against Helicobacter pylori (8007).
Helicobacter pylori [3] = test: Antibacterial activity was evaluated against Helicobacter pylori (9005).
Helicobacter pylori [4] = test: Antibacterial activity was evaluated against Helicobacter pylori (13001).
Enterococcus faecalis = test: Antibacterial activity was evaluated against Enterococcus faecalis (0115)
Serratia marcescens = test: Antibacterial activity was evaluated against Serratia marcescens (3013)
Staphylococcus aureus = test: Antibacterial activity was evaluated against Staphylococcus aureus (209P JC-1)
Moraxella catarrhalis = test: Antibacterial activity was evaluated against M.(B).catarrhalis (6014)
Escherichia coli = test: Antibacterial activity was evaluated against Escherichia coli (NIHJ JC-2)

SMILES	MIC (Helicobacter pylori [1]) [µg/mL]	MIC (Helicobacter pylori [2]) [µg/mL]	MIC (Helicobacter pylori [3]) [µg/mL]	MIC (Helicobacter pylori [4]) [µg/mL]	MIC (Enterococcus faecalis) [µg/mL]	MIC (Serratia marcescens) [µg/mL]	MIC (Staphylococcus aureus) [µg/mL]	MIC (Moraxella catarrhalis) [µg/mL]	MIC (Escherichia coli) [µg/mL]
c1cc(OCc2cccc3nonc23)c2ccncc2c1	0.78 (≈ 2.81 µM)	0.39 (≈ 1.41 µM)	0.78 (≈ 2.81 µM)	0.2 (≈ 0.721 µM)	–	–	–	–	–
CC(=O)Nc1cccc(COc2cccc3cnccc23)c1	1.56 (≈ 5.34 µM)	0.78 (≈ 2.67 µM)	0.78 (≈ 2.67 µM)	0.78 (≈ 2.67 µM)	–	–	–	–	–
Oc1cccc2cnccc12	50 (≈ 344 µM)	25 (≈ 172 µM)	50 (≈ 344 µM)	25 (≈ 172 µM)	–	–	–	–	–
Nc1cccc(COc2cccc3cnccc23)c1Cl	0.78 (≈ 2.74 µM)	0.39 (≈ 1.37 µM)	0.39 (≈ 1.37 µM)	0.2 (≈ 0.702 µM)	–	–	–	–	–
CC(=O)Nc1ccc(Cl)c(COc2cccc3cnccc23)c1	1.56 (≈ 4.77 µM)	0.78 (≈ 2.39 µM)	0.78 (≈ 2.39 µM)	0.78 (≈ 2.39 µM)	–	–	–	–	–
Nc1ccc(Cl)c(COc2cccc3cnccc23)c1	0.39 (≈ 1.37 µM)	0.39 (≈ 1.37 µM)	0.39 (≈ 1.37 µM)	0.39 (≈ 1.37 µM)	–	–	–	–	–
Nc1ccc(Cl)c(COc2cccc3cnccc23)c1Cl	0.78 (≈ 2.44 µM)	0.78 (≈ 2.44 µM)	0.78 (≈ 2.44 µM)	0.78 (≈ 2.44 µM)	–	–	–	–	–
CC(=O)Nc1cccc(COc2cccc3cnccc23)c1Cl	0.39 (≈ 1.19 µM)	0.39 (≈ 1.19 µM)	0.39 (≈ 1.19 µM)	0.39 (≈ 1.19 µM)	–	–	–	–	–
CC1(C)S[C@@H]2[C@H](NC(=O)[C@H](N)c3ccc(O)cc3)C(=O)N2[C@H]1C(=O)O [AMOXICILLIN]	0.025 (≈ 0.0684 µM)	0.1 (≈ 0.274 µM)	0.1 (≈ 0.274 µM)	0.025 (≈ 0.0684 µM)	0.39 (≈ 1.07 µM)	> 100	0.05 (≈ 0.137 µM)	0.39 (≈ 1.07 µM)	3.13 (≈ 8.57 µM)
O=[N+]([O-])c1ccc(Cl)c(COc2cccc3cnccc23)c1Cl	1.56 (≈ 4.47 µM)	1.56 (≈ 4.47 µM)	1.56 (≈ 4.47 µM)	1.56 (≈ 4.47 µM)	–	–	–	–	–
CC[C@H]1OC(=O)[C@H](C)[C@@H](O[C@H]2C[C@@](C)(OC)[C@@H](O)[C@H](C)O2)[C@H](C)[C@@H](O[C@@H]2O[C@H](C)C[C@H](N(C)C)[C@H]2O)[C@](C)(OC)C[C@@H](C)C(=O)[C@H](C)[C@@H](O)[C@]1(C)O [CLARITHROMYCIN]	0.05 (≈ 0.0668 µM)	0.05 (≈ 0.0668 µM)	0.1 (≈ 0.134 µM)	0.05 (≈ 0.0668 µM)	0.2 (≈ 0.267 µM)	100 (≈ 134 µM)	0.1 (≈ 0.134 µM)	< 0.025	100 (≈ 134 µM)

Now from value to compound:

MIC (Helicobacter pylori [1]) [µg/mL]	MIC (Helicobacter pylori [2]) [µg/mL]	MIC (Helicobacter pylori [3]) [µg/mL]	MIC (Helicobacter pylori [4]) [µg/mL]	MIC (Enterococcus faecalis) [µg/mL]	MIC (Serratia marcescens) [µg/mL]	MIC (Staphylococcus aureus) [µg/mL]	MIC (Moraxella catarrhalis) [µg/mL]	MIC (Escherichia coli) [µg/mL]	SMILES
0.39 (≈ 1.08 µM)	0.39 (≈ 1.08 µM)	0.39 (≈ 1.08 µM)	0.2 (≈ 0.554 µM)	–	–	–	–	–	CC(=O)Nc1cc(Cl)cc(COc2cccc3cnccc23)c1Cl
0.0125 (≈ 0.0346 µM)	0.025 (≈ 0.0692 µM)	0.05 (≈ 0.138 µM)	0.025 (≈ 0.0692 µM)	> 100	> 100	> 100	> 100	> 100	CC(=O)Nc1ccc(Cl)c(COc2cccc3cnccc23)c1Cl
1.56 (≈ 6.63 µM)	1.56 (≈ 6.63 µM)	1.56 (≈ 6.63 µM)	0.78 (≈ 3.32 µM)	–	–	–	–	–	c1ccc(COc2cccc3cnccc23)cc1
0.78 (≈ 2.56 µM)	0.78 (≈ 2.56 µM)	1.56 (≈ 5.13 µM)	0.78 (≈ 2.56 µM)	–	–	–	–	–	Clc1cccc(Cl)c1COc1cccc2cnccc12
1.56 (≈ 6.23 µM)	1.56 (≈ 6.23 µM)	1.56 (≈ 6.23 µM)	0.78 (≈ 3.12 µM)	–	–	–	–	–	Nc1cccc(COc2cccc3cnccc23)c1
≥ 12.5	≥ 12.5	≥ 12.5	≥ 12.5	–	–	–	–	–	CC(=O)Nc1c(Cl)ccc(Cl)c1COc1cccc2cnccc12
